We go through twelve compounds from PubChem BioAssay AID328 (DTP/NCI, 2004).

The assay concerns BDF1 mice, P388 leukemia ip, median survival T/C. In words: NCI In Vivo Anticancer Drug Screen. Data for tumor model P388 Leukemia (intraperitoneal) in B6D2F1 (BDF1) mice. As to conditions: endpoint: median survival time, higher = longer survival. The essentials: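 Vehicle-dosed animals serve as the reference; survival of compound-dosed, tumour-implanted mice is divided by it.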

The mark [1] stands for this setting: dose: 100.0 mg/kg/injection, schedule: Q04DX003 (ip), vehicle: Klucel (hydroxypropylcellulose) (HPC).
Setting [2] is: dose: 200.0 mg/kg/injection, schedule: Q04DX003 (ip), vehicle: Klucel (hydroxypropylcellulose) (HPC).
[3] abbreviates: dose: 400.0 mg/kg/injection, schedule: Q04DX003 (ip), vehicle: Klucel (hydroxypropylcellulose) (HPC).
[4] abbreviates: dose: 100.0 mg/kg/injection, schedule: Q01DX009 (ip), vehicle: saline with Tween-80.
Where [5] appears, read: dose: 200.0 mg/kg/injection, schedule: Q01DX009 (ip), vehicle: saline with Tween-80.

Molecules are shown by their SMILES. Inconclusive results and toxic doses are left out.

Take `C=C1C(=O)OC2CC(C)C3CC(=O)C(C)=C3C(O)C12` (centres undefined): the T/C is 120 % of control (dose: 25.0 mg/kg/injection, schedule: Q01DX009 (ip), vehicle: Klucel (hydroxypropylcellulose) (HPC)) and 112 % of control (dose: 50.0 mg/kg/injection, schedule: Q01DX009 (ip), vehicle: Klucel (hydroxypropylcellulose) (HPC)).
Regarding `CCOP(=S)(N1CC1C)N1CC1C` (centres undefined), the T/C (dose: 66.0 mg/kg/injection, schedule: Q04DX003 (ip), vehicle: saline with Tween-80) is 116 % of control; the T/C (dose: 100.0 mg/kg/injection, schedule: Q01DX007 (ip), vehicle: saline with Tween-80) was 163 % of control; the T/C (dose: 100.0 mg/kg/injection, schedule: Q04DX003 (ip), vehicle: saline with Tween-80) was 112 % of control; the T/C (dose: 150.0 mg/kg/injection, schedule: Q01DX007 (ip), vehicle: saline with Tween-80) is 159 % of control; the T/C (dose: 150.0 mg/kg/injection, schedule: Q04DX003 (ip), vehicle: saline with Tween-80) was 120 % of control.
On to `CCOC(=O)CN1C(=O)C(Cl)=C(Cl)C1=O`, for which the T/C was 95 % of control (dose: 3.12 mg/kg/injection, schedule: Q01DX009 (ip), vehicle: Klucel (hydroxypropylcellulose) (HPC)); 95 % of control (dose: 6.25 mg/kg/injection, schedule: Q01DX009 (ip), vehicle: Klucel (hydroxypropylcellulose) (HPC)); 100 % of control (dose: 9.2 mg/kg/injection, schedule: Q04DX003 (ip), vehicle: Klucel (hydroxypropylcellulose) (HPC)); 91 % of control (dose: 14.0 mg/kg/injection, schedule: Q04DX003 (ip), vehicle: Klucel (hydroxypropylcellulose) (HPC)); 91 % of control (dose: 21.0 mg/kg/injection, schedule: Q04DX003 (ip), vehicle: Klucel (hydroxypropylcellulose) (HPC)); 100 % of control (dose: 29.0 mg/kg/injection, schedule: Q04DX003 (ip), vehicle: Klucel (hydroxypropylcellulose) (HPC)).
For `O=C(O)CCCl`, the T/C reads like this: (dose: 50.0 mg/kg/injection, schedule: Q04DX003 (ip), vehicle: saline) 104 % of control; (dose: 100.0 mg/kg/injection, schedule: Q01DX009 (ip), vehicle: saline) 91 % of control; (dose: 100.0 mg/kg/injection, schedule: Q04DX003 (ip), vehicle: saline) 104 % of control; (dose: 200.0 mg/kg/injection, schedule: Q01DX009 (ip), vehicle: saline) 95 % of control; (dose: 200.0 mg/kg/injection, schedule: Q04DX003 (ip), vehicle: saline) 100 % of control.
Turning to `C=CC[N+](CC=C)(CC=C)CC[N+](CC=C)(CC=C)CC=C`, the T/C was 102 % of control (dose: 12.5 mg/kg/injection, schedule: Q01DX009 (ip), vehicle: water); 104 % of control (dose: 12.5 mg/kg/injection, schedule: Q04DX003 (ip), vehicle: saline with Tween-80); 105 % of control (dose: 25.0 mg/kg/injection, schedule: Q01DX009 (ip), vehicle: water); 104 % of control (dose: 25.0 mg/kg/injection, schedule: Q04DX003 (ip), vehicle: saline with Tween-80); 115 % of control (dose: 50.0 mg/kg/injection, schedule: Q01DX009 (ip), vehicle: water); 101 % of control (dose: 50.0 mg/kg/injection, schedule: Q04DX003 (ip), vehicle: saline with Tween-80).
For `CN(C)C(=O)C(=O)C1C=Cc2ccccc21` (centres undefined), the T/C was 100 % of control (dose: 100.0 mg/kg/injection, schedule: Q01DX001 (ip), vehicle: Klucel (hydroxypropylcellulose) (HPC)); 100 % of control under setting [1]; 95 % of control (dose: 200.0 mg/kg/injection, schedule: Q01DX001 (ip), vehicle: Klucel (hydroxypropylcellulose) (HPC)); 104 % of control under setting [2]; 90 % of control (dose: 400.0 mg/kg/injection, schedule: Q01DX001 (ip), vehicle: Klucel (hydroxypropylcellulose) (HPC)); 104 % of control under setting [3].
Take `O=C1CC(c2ccc(OCN(CCCl)CCCl)cc2)CC(=O)C1CN(CCCl)CCCl` (centres undefined): the T/C is 124 % of control (dose: 0.5 mg/kg/injection, schedule: Q01DX009 (ip), vehicle: Klucel (hydroxypropylcellulose) (HPC)) and 160 % of control (dose: 4.0 mg/kg/injection, schedule: Q01DX009 (ip), vehicle: Klucel (hydroxypropylcellulose) (HPC)).
Take `COc1cc2c(c(OC)c1OC)-c1cc3c(cc1[C@@H](OC(C)=O)[C@@H]1COC(=O)[C@H]1C2)OCO3`: the T/C by setting is: (dose: 1.0 mg/kg/injection, schedule: Q01DX009 (ip), vehicle: saline + alcohol) 118 % of control; (dose: 1.3 mg/kg/injection, schedule: Q01DX009 (ip), vehicle: saline) 100 % of control; (dose: 1.77 mg/kg/injection, schedule: Q01DX009 (ip), vehicle: saline) 100 % of control; (dose: 2.0 mg/kg/injection, schedule: Q01DX009 (ip), vehicle: saline + alcohol) 118 % of control; (dose: 2.0 mg/kg/injection, schedule: Q01DX009 (ip), vehicle: saline) 100 % of control; (dose: 2.66 mg/kg/injection, schedule: Q01DX009 (ip), vehicle: saline) 90 % of control. The T/C runs as follows: (dose: 3.0 mg/kg/injection, schedule: Q01DX009 (ip), vehicle: saline) 104 % of control; (dose: 4.0 mg/kg/injection, schedule: Q01DX009 (ip), vehicle: saline + alcohol) 118 % of control; (dose: 4.0 mg/kg/injection, schedule: Q01DX009 (ip), vehicle: saline) 90 % of control; (dose: 6.0 mg/kg/injection, schedule: Q01DX009 (ip), vehicle: saline) 100 % of control; (dose: 6.22 mg/kg/injection, schedule: Q01DX009 (ip), vehicle: saline + alcohol) 116 % of control; (dose: 8.0 mg/kg/injection, schedule: Q01DX009 (ip), vehicle: saline + alcohol) 113 % of control. Further, the T/C (dose: 8.9 mg/kg/injection, schedule: Q01DX009 (ip), vehicle: saline) is 104 % of control; the T/C (dose: 9.33 mg/kg/injection, schedule: Q01DX009 (ip), vehicle: saline + alcohol) was 112 % of control; the T/C (dose: 12.0 mg/kg/injection, schedule: Q01DX009 (ip), vehicle: saline) was 115 % of control; the T/C (dose: 13.3 mg/kg/injection, schedule: Q01DX009 (ip), vehicle: saline) was 113 % of control; the T/C (dose: 14.0 mg/kg/injection, schedule: Q01DX009 (ip), vehicle: saline + alcohol) is 120 % of control; the T/C (dose: 18.0 mg/kg/injection, schedule: Q01DX009 (ip), vehicle: saline) is 100 % of control. Further, the T/C runs as follows: (dose: 20.0 mg/kg/injection, schedule: Q01DX009 (ip), vehicle: saline) 109 % of control; (dose: 21.0 mg/kg/injection, schedule: Q01DX009 (ip), vehicle: saline + alcohol) 91 % of control.
Regarding `CSCCC1NC(=O)C(/C(C)=N\NC(N)=O)=C1O` (centres undefined), the T/C is 108 % of control (dose: 50.0 mg/kg/injection, schedule: Q01DX009 (ip), vehicle: saline with Tween-80); 115 % of control under setting [4]; 92 % of control under setting [5].
For the compound `CCOC(=O)Cn1cnc2cc(Cl)c([N+](=O)[O-])cc2c1=O`, the T/C (dose: 50.0 mg/kg/injection, schedule: Q04DX003 (ip), vehicle: Klucel (hydroxypropylcellulose) (HPC)) is 96 % of control; the T/C under setting [1] is 104 % of control; the T/C under setting [2] was 102 % of control; the T/C under setting [3] is 109 % of control.
With `Cc1c(Cl)cc(Cl)c(N)c1Cl`, the T/C runs as follows: (dose: 200.0 mg/kg/injection, schedule: Q04DX003 (ip), vehicle: saline with Tween-80) 100 % of control; (dose: 400.0 mg/kg/injection, schedule: Q04DX003 (ip), vehicle: saline with Tween-80) 100 % of control.
As to `CCCC(=O)Nc1ccc([N+](=O)[O-])cc1OC`, the T/C is, setting by setting: under setting [4], 90 % of control; under setting [5], 100 % of control; (dose: 400.0 mg/kg/injection, schedule: Q01DX009 (ip), vehicle: saline with Tween-80) 100 % of control.
